Assay results published in PubChem BioAssay AID588585 (The Scripps Research Institute Molecular Screening Center, 2011).
Active and inactive are the calls of the source.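 The calls were made as follows: active = inhibition of probe labelling of the enzyme band in the gel above 60%; inactive = inhibition at or below 60%.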

What follows are molecules tested on Fam108b (ABHD17B) serine hydrolase [Mus musculus] (assay: inhibition of membrane-bound mouse Fam108b, SAR follow-up, cell lysate, gel-based competitive ABPP, full-length membrane form, powders (AID 588585)). Conditions: Fam108b membrane proteome, competitive ABPP FP-Rh gel; at 5 µM; active compounds read high.

inhibition | Compound
0% (inactive) | O=c1[nH]c(-c2cccs2)nc2scc(-c3ccccc3)c12
0% (inactive) | O=c1[nH]c(=O)c2c(-c3ccccc3)csc2[nH]1
0% (inactive) | Cc1ccc(C2NC(=O)c3c(sc4c3CCCC4)N2)cc1 (centres undefined)
0% (inactive) | COc1ccc(-c2csc3cc(-c4ccccc4Cl)oc(=O)c23)cc1
0% (inactive) | O=c1c2c(-c3ccccc3)csc2ncn1Cc1ccccc1
0% (inactive) | Cc1ccc(-c2csc3cc(-c4ccc(Br)cc4)oc(=O)c23)cc1
0% (inactive) | COc1ccc(C2NC(=O)c3c(sc(C)c3C)N2)cc1 (centres undefined)
0% (inactive) | O=c1[nH]c(-c2ccccc2)nc2scc(-c3cccs3)c12
0% (inactive) | O=c1[nH]c(=S)[nH]c2scc(-c3cccs3)c12
0% (inactive) | CC(C)(C)c1nc2scc(-c3ccccc3)c2c(=S)s1
0% (inactive) | O=c1[nH]c(=S)[nH]c2scc(-c3ccccc3)c12
0% (inactive) | O=c1[nH]c(-c2ccccc2)nc2scc(-c3ccccc3)c12
0% (inactive) | O=c1oc(-c2ccco2)cc2scc(-c3ccc(Br)cc3)c12
0% (inactive) | Fc1ccccc1-c1nc2scc(-c3cccs3)c2c(=S)s1
